According to patent publication US8470755B1, “Liquid cleaning and disinfecting compositions comprising a zinc inorganic salt” (The Procter & Gamble Company, priority 2012, dated 2013):

Tests used:
Format in all cases: cell-based
[1] = tested on: Pseudomonas Aeruginosa (PA) CIP 82.113; assay: ASTM E2149 shake flask method, antibacterial log reduction, Ps. aeruginosa; conditions: Ps Aeroginosa; tested active concentration 10%; log(T0/T1h), 1 hour
Protocol: (§1) The antibacterial efficacy was tested following the below Shake Flask protocol:
(§2) • Microbial strains: Staphylococcus aureus (SA) CIP 4.83, Escherichia Coli (EC) CIP 53.126, Pseudomonas Aeruginosa (PA) CIP 82.113 • Culture media: TSA medium-Neutralizing medium (Dey Engley Broth)-Buffered Peptoned water (BPW-F)-Shake flask bottles-Physiological water • Incubator Shake Flask Protocol: ASTM E2149 Shake Flask Method • Inoculum counting: • For each strain, prepare an inoculum at 0.5 Mc Farland (McF). Dilute 1 ml of the inoculum with 9 ml of physiological water. Select 1 ml of the resulting dilution and dilute again with 9 ml of physiological water. Execute 5 dilution steps accordingly so that a 10^−5 dilution is obtained. • Recover 100 microliter of the 10^−5 dilution and inoculate 2 petri dishes. • Add 20 ml of TSA medium. • Incubate at 32+/−0.5° C. during 24 hours • Negative control: • Put 5 ml of SA, EC or PA inoculums into a shake flask. Add 45 ml of pure BPW-F solution. • Dilute twice in neutralizing medium: Recover 1 ml of the pure solution and add 9 ml of the neutralizing medium (=10^−1 and 10^−2 dilution). • Wait 5 minutes and put 100 microliter of the pure solution and the 10^−2 dilution into 2 petri dishes, add 20 ml of TSA medium (T0). • Do the same operation after 1 hour (T1h). • Incubate at 32+/−0.5° C. during 24 hours • Sample testing: • Prepare a solution at a specified concentration (see data tables for actual concentrations as 100% active—final volume 50 ml). For example, for a 50% (V/V), dilute 25 ml of product with 20 ml of BPW-F and 5 ml of the inoculums (SA, EC or PA) at 0.5 McF. • Dilute twice in neutralizing medium: Recover 1 ml of the pure solution and add 9 ml of the neutralizing medium (=10^−1 and 10^−2 dilution). • Wait 5 minutes and put 100 microliter of the pure solution and the 10^−2 dilution into 2 petri dishes, add 20 ml of TSA medium (T0). • Do the same operation after 1 hour (T1h). • Incubate at 32+/−0.5° C. during 24 hours • Calculation of log reduction: • The log reduction is calculated as log(T0/T1h)

[2] = tested on: Escherichia Coli (EC) CIP 53.126; assay: ASTM E2149 shake flask method, antibacterial log reduction, E. coli; conditions: log(T0/T1h), 1 hour
Protocol: as §1, §2

[3] = tested on: Staphylococcus aureus (SA) CIP 4.83; assay: ASTM E2149 shake flask method, antibacterial log reduction, St. aureus; conditions: log(T0/T1h), 1 hour
Protocol: as §1, §2

[4] = tested active concentration 0.1%
[5] = St. Aureus, tested active concentration 0.1%

O=C([O-])[O-].[Zn+2] [Zn2+, zinc carbonate] was tested, and the “Log reduction (tested active concentration)” value (“Log reduction” below) [1] was 0.27 (10%), the “Log reduction” value [2, 4] was 0.17 (0.1%) and the “Log reduction” value [3, 5] was 0.18 (0.1%).
“linear C12-14 alkyl dimethyl amine oxide [Linear AO]” was tested, and the “Log reduction” value [1] was 2.10 (10%), the “Log reduction” value [2, 4] was 0.41 (0.1%) and the “Log reduction” value [3, 5] was 0.73 (0.1%).
“methyl branched dimethyl amine oxide [Shell type 1 Branched AO ( N terminal)]” was tested, and the “Log reduction” value [1] was 3.98 (10%) and the “Log reduction” value [3, 5] was 4.06 (0.1%).
CCCCCCCCCCCC(=O)NCCC[N+](C)(C)[O-] [CAP AO, cocoamidopropyl dimethyl amine oxide] was tested, and the “Log reduction” value [1] was 1.3 (10%), the “Log reduction” value ([2]; tested active concentration 1%) was 0.37 (1%) and the “Log reduction” value ([3]; St Aureus, tested active concentration 1%) was 0.88 (1%).
